{"source": "patent US20100120700A1", "about": "“METHODS AND COMPOSITIONS FOR TREATING CERVICAL CANCER” (priority 2000, published 2010)", "test_in_all_cases": "G assay PDZ-PL binding", "design_in_all_cases": "species or system human", "conditions_in_all_cases": "peptide 10 uM, protein 5", "key": {"[1]": {"test_system": "FLJ00011 domain 1", "sequence (as listed by the source)": "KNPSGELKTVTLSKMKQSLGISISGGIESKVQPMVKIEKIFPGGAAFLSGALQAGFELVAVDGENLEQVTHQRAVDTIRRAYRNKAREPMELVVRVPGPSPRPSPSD", "experimental": "(§1) (1) A PDZ-domain polypeptide is bound to a surface, e.g. a protein binding surface. In a preferred embodiment, a GST/PDZ fusion protein containing one or more PDZ domains is bound to a polystyrene 96-well plate. […] In one embodiment, the GST/PDZ fusion protein is bound via an anti-GST antibody that is coated onto the 96-well plate. Adequate binding to the plate can be achieved when: • a. 100 uL per well of 5 ug/mL goat anti-GST polyclonal antibody (Pierce) in PBS is added to a polystyrene 96-well plate (e.g., Num Polysorb) at 4° C. for 12 hours. • b. The plate is blocked by addition of 200 uL per well of PBS/BSA for 2 hours at 4° C. • c. The plate is washed 3 times with PBS. • d. 50 uL per well of 5 ug/mL GST/PDZ fusion protein) or, as a negative control, GST polypeptide alone (i.e. not a fusion protein) in PBS/BSA is added to the plate for 2 hours at 4° C. • e. The plate is again washed 3 times with PBS. […]\n(§2) (3) The binding of the biotinylated peptide to the GST/PDZ fusion protein surface can be detected using a variety of methods and detectors known to one of skill in the art. In one embodiment, 100 uL per well of 0.5 ug/mL streptavidin-horse radish peroxidase (HRP) conjugate dissolved in BSA/PBS is added and allowed to react for 20 minutes at 4° C. The plate is then washed 5 times with 50 mM Tris pH 8.0 containing 0.2% Tween 20, and developed by addition of 100 uL per well of HRP-substrate solution (TMB, Dako) for 20 minutes at room temperature (RT). The reaction of the HRP and its substrate is terminated by addition of 100 uL per well of 1M sulfuric acid, and the absorbance of each well of the plate is read at 450 nm.\n(§3) (4) Specific binding of a PL peptide and a PDZ domain polypeptide is determined by comparing the signal from the well(s) in which the PL peptide and PDZ domain polypeptide are combined, with the background signal(s). The background signal is the signal found in the negative control(s). Typically a specific or selective reaction will be at least twice background signal, more typically more than 5 times background, and most typically 10 or more times the background signal. In addition, a statistically significant reaction will involve multiple measurements of the reaction with the signal and the background differing by at least two standard errors, more typically four standard errors, and most typically six or more standard errors. Correspondingly, a statistical test (e.g. a T-test) comparing repeated measurements of the signal with-repeated measurements of the background will result in a p-value<0.05, more typically a p-value<0.01, and most typically a p-value<0.001 or less. As noted, in an embodiment of the “G” assay, the signal from binding of a given PL peptide to immobilized (surface bound) GST polypeptide alone is one suitable negative control (sometimes referred to as “B 1”). Because all measurement are done in multiples (i.e. at least duplicate) the arithmetic mean (or, equivalently, average.) of several measurements is used in determining the binding, and the standard error of the mean is used in determining the probable error in the measurement of the binding. The standard error of the mean of N measurements equals the square root of the following: the sum of the squares of the difference between each measurement and the mean, divided by the product of (N) and (N−1). Thus, in one embodiment, specific binding of the PDZ protein to the platebound peptide is determined by comparing the mean signal (“mean S”) and standard error of the signal (“SE”) for a particular PL-PDZ combination with the mean B1.\n(§4) For convenience, the assay conditions described in this section are referred to as the “G’ assay” and the “G” assay,” with the specific conditions described in the preceding section on G assays being referred to as the “G° assay.” The “G′ assay” is identical to the “G° assay” except at step (2) the peptide concentration is 10 uM instead of 20 uM. […]"}, "[2]": {"test_system": "NSP #268.2 domain 1", "experimental": "as §1, §2, §3, §4"}, "[3]": {"test_system": "DLG-6 #333.1 domain 1", "experimental": "as §1, §2, §3, §4"}}, "note": "Values joined by “and” are separate entries in the source; they are usually repeats but may differ in a detail not shown here. Equal entries are not always repeated."}
{"substance": "20 mer peptide corresponding to the C-terminus of HPV16 E6 (PDZ ligand), biotinylated in binding assays; ends SSRTRRETQL (SEQ ID NO: 13) [HPV E6 #16]", "values": [{"measurement": "Ave OD", "setting": "[1]; A450 nm", "result": "0.423 and 0.8185"}, {"measurement": "OD S/N", "setting": "[1]; vs GST only well", "result": "2.90 and 3.97"}, {"measurement": "Ave OD", "setting": "[2]; A450 nm", "result": 0.724}, {"measurement": "OD S/N", "setting": "[2]; vs GST only well", "result": 2.58}, {"measurement": "Ave OD", "setting": "[3]; A450 nm", "result": 0.3495}, {"measurement": "OD S/N", "setting": "[3]; vs GST only well", "result": 2.04}]}
